Converted amounts (≈) assume the structure as drawn.
What was measured:
[1] = system: Streptococcus mutans; assay: Antibacterial activity against Streptococcus mutans ATCC 25175 assessed as effect on planktonic growth at 0.68 ug/ml after 20 hrs relative to control; type: functional
[2] = system: Pseudomonas aeruginosa; assay: Antibacterial activity against Pseudomonas aeruginosa ATCC 27853 assessed as effect on planktonic growth at 0.34 ug/ml after 20 hrs relative to control; type: functional
[3] = system: Staphylococcus epidermidis; assay: Antibacterial activity against Staphylococcus epidermidis ATCC 35547 assessed as effect on planktonic growth at 43.8 ug/ml after 20 hrs relative to control; type: functional
[4] = system: Staphylococcus epidermidis; assay: Antibacterial activity against Staphylococcus epidermidis ATCC 35547 assessed as effect on planktonic growth at 2.73 ug/ml after 20 hrs relative to control; type: functional
[5] = system: Streptococcus mutans; assay: Antibacterial activity against Streptococcus mutans ATCC 25175 assessed as inhibition of biofilm formation after 20 hrs by crystal-violet staining method; type: functional; conditions: ATCC 25175, 20 h
[6] = system: Pseudomonas aeruginosa; assay: Antibacterial activity against Pseudomonas aeruginosa ATCC 27853 assessed as effect on planktonic growth at 10.9 ug/ml after 20 hrs relative to control; type: functional
[7] = system: Staphylococcus aureus; assay: Antibacterial activity against Staphylococcus aureus ATCC 25923 assessed as effect on planktonic growth at 21.9 ug/ml after 20 hrs relative to control; type: functional
[8] = system: Staphylococcus aureus; assay: Antibacterial activity against Staphylococcus aureus ATCC 25923 assessed as effect on planktonic growth at 5.5 ug/ml after 20 hrs relative to control; type: functional
[9] = system: Streptococcus mutans; assay: Antibacterial activity against Streptococcus mutans ATCC 25175 assessed as effect on planktonic growth at 87.5 ug/ml after 20 hrs relative to control; type: functional
[10] = system: Streptococcus mutans; assay: Antibacterial activity against Streptococcus mutans ATCC 25175 assessed as effect on planktonic growth at 0.34 ug/ml after 20 hrs relative to control; type: functional
[11] = system: Streptococcus mutans; assay: Antibacterial activity against Streptococcus mutans ATCC 25175 assessed as effect on planktonic growth at 21.9 ug/ml after 20 hrs relative to control; type: functional
[12] = system: Pseudomonas aeruginosa; assay: Antibacterial activity against Pseudomonas aeruginosa ATCC 27853 assessed as effect on planktonic growth at 5.5 ug/ml after 20 hrs relative to control; type: functional
[13] = system: Streptococcus mutans; assay: Antibacterial activity against Streptococcus mutans ATCC 25175 assessed as effect on planktonic growth at 0.17 ug/ml after 20 hrs relative to control; type: functional
[14] = system: Pseudomonas aeruginosa; assay: Antibacterial activity against Pseudomonas aeruginosa ATCC 27853 assessed as effect on planktonic growth at 0.17 ug/ml after 20 hrs relative to control; type: functional
[15] = system: Pseudomonas aeruginosa; assay: Antibacterial activity against Pseudomonas aeruginosa ATCC 27853 assessed as effect on planktonic growth at 87.5 ug/ml after 20 hrs relative to control; type: functional
[16] = system: Staphylococcus epidermidis; assay: Antibacterial activity against Staphylococcus epidermidis ATCC 35547 assessed as effect on planktonic growth at 10.9 ug/ml after 20 hrs relative to control; type: functional
[17] = system: Staphylococcus aureus; assay: Antibacterial activity against Staphylococcus aureus ATCC 25923 assessed as effect on planktonic growth at 2.73 ug/ml after 20 hrs relative to control; type: functional
[18] = system: Staphylococcus epidermidis; assay: Antibacterial activity against Staphylococcus epidermidis ATCC 35547 assessed as effect on planktonic growth at 0.68 ug/ml after 20 hrs relative to control; type: functional
[19] = system: Pseudomonas aeruginosa; assay: Antibacterial activity against Pseudomonas aeruginosa ATCC 27853 assessed as inhibition of biofilm formation after 20 hrs by crystal-violet staining method; type: functional, organism-based; conditions: for IC50: ATCC 27853, 20 h
[20] = system: Streptococcus mutans; assay: Antibacterial activity against Streptococcus mutans ATCC 25175 assessed as effect on planktonic growth at 43.8 ug/ml after 20 hrs relative to control; type: functional
[21] = system: Staphylococcus epidermidis; assay: Antibacterial activity against Staphylococcus epidermidis ATCC 35547 assessed as effect on planktonic growth at 87.5 ug/ml after 20 hrs relative to control; type: functional
[22] = system: Pseudomonas aeruginosa; assay: Antibacterial activity against Pseudomonas aeruginosa ATCC 27853 assessed as effect on planktonic growth at 1.37 ug/ml after 20 hrs relative to control; type: functional
[23] = system: Staphylococcus aureus; assay: Antibacterial activity against Staphylococcus aureus ATCC 25923 assessed as effect on planktonic growth at 43.8 ug/ml after 20 hrs relative to control; type: functional
[24] = system: Staphylococcus epidermidis; assay: Antibacterial activity against Staphylococcus epidermidis ATCC 35547 assessed as effect on planktonic growth at 5.5 ug/ml after 20 hrs relative to control; type: functional
[25] = system: Staphylococcus aureus; assay: Antibacterial activity against Staphylococcus aureus ATCC 25923 assessed as effect on planktonic growth at 0.34 ug/ml after 20 hrs relative to control; type: functional
[26] = system: Pseudomonas aeruginosa; assay: Antibacterial activity against Pseudomonas aeruginosa ATCC 27853 assessed as effect on planktonic growth at 43.8 ug/ml after 20 hrs relative to control; type: functional
[27] = system: Staphylococcus aureus; assay: Antibacterial activity against Staphylococcus aureus ATCC 25923 assessed as effect on planktonic growth at 0.17 ug/ml after 20 hrs relative to control; type: functional
[28] = system: Streptococcus mutans; assay: Antibacterial activity against Streptococcus mutans ATCC 25175 assessed as effect on planktonic growth at 1.37 ug/ml after 20 hrs relative to control; type: functional
[29] = system: Staphylococcus aureus; assay: Antibacterial activity against Staphylococcus aureus ATCC 25923 assessed as effect on planktonic growth at 1.37 ug/ml after 20 hrs relative to control; type: functional
[30] = system: Staphylococcus aureus; assay: Antibacterial activity against Staphylococcus aureus ATCC 25923 assessed as effect on planktonic growth at 10.9 ug/ml after 20 hrs relative to control; type: functional
[31] = system: Streptococcus mutans; assay: Antibacterial activity against Streptococcus mutans ATCC 25175 assessed as effect on planktonic growth at 5.5 ug/ml after 20 hrs relative to control; type: functional
[32] = system: Staphylococcus epidermidis; assay: Antibacterial activity against Staphylococcus epidermidis ATCC 35547 assessed as effect on planktonic growth at 1.37 ug/ml after 20 hrs relative to control; type: functional
[33] = system: Staphylococcus aureus; assay: Antibacterial activity against Staphylococcus aureus ATCC 25923 assessed as effect on planktonic growth at 0.68 ug/ml after 20 hrs relative to control; type: functional
[34] = system: Staphylococcus aureus; assay: Antibacterial activity against Staphylococcus aureus ATCC 25923 assessed as effect on planktonic growth at 87.5 ug/ml after 20 hrs relative to control; type: functional
[35] = system: Staphylococcus epidermidis; assay: Antibacterial activity against Staphylococcus epidermidis ATCC 35547 assessed as effect on planktonic growth at 0.34 ug/ml after 20 hrs relative to control; type: functional
[36] = system: Streptococcus mutans; assay: Antibacterial activity against Streptococcus mutans ATCC 25175 assessed as inhibition of biofilm formation at 44 ug/ml after 20 hrs by crystal-violet staining method relative to control; type: functional; conditions: ATCC 25175, 20 h
[37] = system: Staphylococcus aureus; assay: Antibacterial activity against Staphylococcus aureus ATCC 25923 assessed as inhibition of biofilm formation after 20 hrs by crystal-violet staining method; type: functional, organism-based; conditions: ATCC 25923, 20 h
[38] = system: Pseudomonas aeruginosa; assay: Antibacterial activity against Pseudomonas aeruginosa ATCC 27853 assessed as effect on planktonic growth at 2.73 ug/ml after 20 hrs relative to control; type: functional
[39] = system: Streptococcus mutans; assay: Antibacterial activity against Streptococcus mutans ATCC 25175 assessed as effect on planktonic growth at 2.73 ug/ml after 20 hrs relative to control; type: functional
[40] = system: Pseudomonas aeruginosa; assay: Antibacterial activity against Pseudomonas aeruginosa ATCC 27853 assessed as effect on planktonic growth at 21.9 ug/ml after 20 hrs relative to control; type: functional
[41] = system: Staphylococcus epidermidis; assay: Antibacterial activity against Staphylococcus epidermidis ATCC 35547 assessed as effect on planktonic growth at 0.17 ug/ml after 20 hrs relative to control; type: functional
[42] = system: Staphylococcus epidermidis; assay: Antibacterial activity against Staphylococcus epidermidis ATCC 35547 assessed as effect on planktonic growth at 21.9 ug/ml after 20 hrs relative to control; type: functional
[43] = system: Streptococcus mutans; assay: Antibacterial activity against Streptococcus mutans ATCC 25175 assessed as effect on planktonic growth at 10.9 ug/ml after 20 hrs relative to control; type: functional
[44] = system: Pseudomonas aeruginosa; assay: Antibacterial activity against Pseudomonas aeruginosa ATCC 27853 assessed as effect on planktonic growth at 0.68 ug/ml after 20 hrs relative to control; type: functional
[45] = system: Staphylococcus epidermidis; assay: Antibacterial activity against Staphylococcus epidermidis ATCC 35547 assessed as inhibition of biofilm formation after 20 hrs by crystal-violet staining method; type: functional, organism-based; conditions: for IC50: ATCC 35547, 20 h
[46] = system: Streptococcus mutans; assay: Induction of biofilm formation in Streptococcus mutans ATCC 25175 at 44 ug/ml after 20 hrs by crystal-violet staining method relative to control

COc1ccccc1C1=C(Br)C(=O)N(CC(C)C)/C1=C/c1ccc(C(F)(F)F)cc1
Activity [1]: 6% | Activity [2]: -5.2% | Activity [3]: 40.1% | Activity [4]: -6.4% | IC50 [5]: 58.9 µM | Activity [6]: -4.1% | Activity [7]: 4.9% | Activity [8]: -18.5% | Activity [9]: -46.9% | Activity [10]: -5.4% | Activity [11]: -12% | Activity [12]: -15.8% | Activity [13]: 7.9% | Activity [14]: -2.3% | Activity [15]: 30.6% | Activity [16]: 36.6% | Activity [17]: -21.7% | Activity [18]: -10.2% | inhibition [19]: Dose-dependent effect | IC50 [19]: 25.2 µg/mL (≈ 52.5 µM) | Activity [20]: -55.3% | Activity [21]: -5.5% | Activity [22]: -10.4% | Activity [23]: 59.8% | Activity [24]: 1% | Activity [25]: -1.6% | Activity [26]: 34.8% | Activity [27]: 0% | Activity [28]: 10.6% | Activity [29]: -14.9% | Activity [30]: -3.8% | Activity [31]: -15.8% | Activity [32]: 1.1% | Activity [33]: -5.2% | Activity [34]: 91% | Activity [35]: -2.2% | inhibition at 44 µg/mL [36]: 88.8% | IC50 [37]: 95.1 µM | Activity [38]: -13.1% | Activity [39]: -0.8% | Activity [40]: 9.1% | Activity [41]: -16.7% | Activity [42]: 88.5% | Activity [43]: -19.3% | Activity [44]: -4% | inhibition [45]: Dose-dependent effect | IC50 [45]: 12.2 µg/mL (≈ 25.4 µM)

COc1ccc(C)cc1C1=C(Br)C(=O)O/C1=C\c1cccc(Cl)c1
Activity [1]: -5.8% | Activity [2]: -4.8% | Activity [3]: 12.7% | Activity [4]: -4% | Activity [6]: -14% | Activity [7]: 39.3% | Activity [8]: 35.4% | Activity [9]: 34.9% | Activity [10]: 9.9% | Activity [11]: 12.1% | Activity [12]: -8.9% | Activity [46]: Toxic | Activity [13]: 10.2% | Activity [14]: -3% | Activity [15]: 7.8% | Activity [16]: -3.1% | Activity [17]: 46.8% | Activity [18]: 11.9% | inhibition [19]: Dose-dependent effect | IC50 [19]: > 87.5 µg/mL | Activity [20]: 19.8% | Activity [21]: 33.8% | Activity [22]: 0.8% | Activity [23]: 66.1% | Activity [24]: 4% | Activity [25]: 47.5% | Activity [26]: -8.5% | Activity [27]: 23% | Activity [28]: 0% | Activity [29]: 50.6% | Activity [30]: 34.9% | Activity [31]: 5.2% | Activity [32]: 4.9% | Activity [33]: 52.2% | Activity [34]: 131% | Activity [35]: 10.3% | Activity [38]: -4.8% | Activity [39]: 8.2% | Activity [40]: -12.1% | Activity [41]: 13.2% | Activity [42]: 8.9% | Activity [43]: -2.7% | Activity [44]: -0.1% | inhibition [45]: Dose-dependent effect | IC50 [45]: > 87.5 µg/mL

Source: ChEMBL document CHEMBL3112480, “γ-Alkylidene-γ-lactones and isobutylpyrrol-2(5H)-ones analogues to rubrolides as inhibitors of biofilm formation by gram-positive and gram-negative bacteria” (Bioorg Med Chem Lett, 2014)
